In BindingDB's records for doi:10.1016/j.bmc.2020.115644 (Umass Medical School, 2020):
Where a name gives a salt, the structure may show the parent alone.

Legend:
NAD(+) hydrolase SARM1 [1] = target: T1, NAD(+) hydrolase SARM1 (Homo sapiens, UniProt Q6SZW1); assay: Inhibition of recombinant human SARM1 TIR domain (561 to 724 residues) expressed in Escherichia coli C43 (DE3) cells lysates using ENAD as substrate preincubated for 20 mins followed by ENAD addition and measured at 15 sec interval for 15 mins
T1 sequence (Q6SZW1 whole entry): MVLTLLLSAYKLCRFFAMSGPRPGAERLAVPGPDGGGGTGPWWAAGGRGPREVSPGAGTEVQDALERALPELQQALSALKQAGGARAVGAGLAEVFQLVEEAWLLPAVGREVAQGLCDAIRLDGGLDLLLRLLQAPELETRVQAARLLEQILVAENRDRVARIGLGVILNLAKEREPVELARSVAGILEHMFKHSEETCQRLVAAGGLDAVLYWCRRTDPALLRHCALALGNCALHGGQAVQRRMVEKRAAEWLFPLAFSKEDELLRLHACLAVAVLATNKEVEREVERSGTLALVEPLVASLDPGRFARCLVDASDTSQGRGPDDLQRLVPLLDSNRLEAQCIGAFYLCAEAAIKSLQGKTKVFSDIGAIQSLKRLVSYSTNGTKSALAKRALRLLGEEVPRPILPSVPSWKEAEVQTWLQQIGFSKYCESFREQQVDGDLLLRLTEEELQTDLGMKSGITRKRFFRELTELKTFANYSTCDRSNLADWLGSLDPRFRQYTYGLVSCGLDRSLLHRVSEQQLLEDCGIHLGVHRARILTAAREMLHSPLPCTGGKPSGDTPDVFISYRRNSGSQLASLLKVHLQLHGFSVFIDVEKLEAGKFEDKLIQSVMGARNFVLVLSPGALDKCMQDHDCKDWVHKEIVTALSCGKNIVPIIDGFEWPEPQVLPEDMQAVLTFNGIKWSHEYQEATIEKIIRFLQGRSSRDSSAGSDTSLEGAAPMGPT

NAD(+) hydrolase SARM1 [2] = target: T1, NAD(+) hydrolase SARM1; assay: Noncompetitive inhibition of recombinant human SARM1 TIR domain (561 to 724 residues) expressed in Escherichia coli C43 (DE3) cells lysates assessed as EADPR formation using ENAD as substrate preincubated for 20 mins followed by ENAD addition and measured at 15 sec interval for 1 hr

| SMILES | IC50 (NAD(+) hydrolase SARM1 [1]) [µM] | Ki (NAD(+) hydrolase SARM1 [2]) [µM] |
| --- | --- | --- |
| C[C@H]1c2cccc(O)c2C(=O)C2=C(O)[C@]3(O)C(=O)C(C(N)=O)=C(O)[C@@H](N(C)C)[C@@H]3[C@@H](O)[C@@H]21 [DOXYCYCLINE HYDROCHLORIDE] | 145 | 280 |
| Nc1ccc(/N=N/c2ccccc2)c(N)n1 [NC 150] | 145 | – |
